Patent publication US20240034743A9, “TRICYCLIC COMPOUNDS AS EGFR INHIBITORS” (QILU PHARMACEUTICAL CO., LTD., priority 2020, published 2024)
Where two headings read alike, the source gives them in different places.

How the values were obtained:
[1] = target: EGFR L858R/T790M/C797S (Homo sapiens (Human), UniProt P00533, C797S/L858R/T790M); experiment: In vitro enzymatic TR-FRET (HTRF KinEASE-TK) kinase assay, EGFR L858R/T790M/C797S; assay type: biochemical; settings: kinase activity
Procedure: (I) In Vitro Enzymatic Experiment for EGFR WT and EGFR L858R/T790M/C797S
In the assay, the inhibition effect of the compound on the kinase activity of EGFR WT (wild type EGFR) and EGFR L858R/T790M/C797S was tested by adopting a time-resolved fluorescence resonance energy transfer (TR-FRET) method, and half maximal inhibitory concentration IC50 of the compound on the kinase activity of EGFR was obtained.
EGFR recombinase and EGFR L858R/T790M/C797S recombinase, purchased from Signalchem.
HTRF KinEASE-TK kit, purchased from Cisbio.
DTT, MnCl2, and MgCl2, purchased from Sigma.
ATP, purchased from Promega.
Brigatinib, purchased from Selleck.
1) 1× working solution was prepared: 5 mM MgCl2; 1 mM DTT; 1 mM MnCl2 and 1× kinase buffer (in kit).
2) […] of gradiently-diluted compound was transferred to a 384-well plate using Echo 550 (Labcyte).
3) 5 μL of 2× EGFR WT or EGFR L858R/T790M/C797S recombinase solution was added to the 384-well plate, and the plate was incubated at room temperature for 10 min.
4) 5 μL of 2× TK-substrate-biotin substrate solution (containing ATP) was added to the 384-well plate, and the plate was incubated at room temperature for 40 min.
5) 5 μL of assay solution containing Sa-XL 665 HTRF and 5 μL of TK-antibody-Cryptatewas were added to the plate, and the plate was incubated at room temperature for 1 h.
6) The fluorescence signal values at 615 nm and 665 nm were measured for each well using an Envision microplate reader (PerkinElmer).
7) The ratio of fluorescence signal values at 665 nm and 615 nm was calculated for each well.
8) Data analysis was performed using GraphPad Prism software to give the IC50 for compounds.

[2] = target: EGFR WT (wild type EGFR) (Homo sapiens (Human), UniProt P00533); experiment: In vitro enzymatic TR-FRET (HTRF KinEASE-TK) kinase assay, EGFR WT; assay type: biochemical; settings: kinase activity, TR-FRET; read-out: EGFR (WT) IC50
Method in brief: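 IC50 derived from the 665/615 nm TR-FRET ratio after 1 h with streptavidin-XL665 and Cryptate-labelled TK antibody. Kinase reaction ran 40 min at room temperature with biotin-TK substrate and ATP, following 10 min compound–enzyme preincubation. Buffer: 5 mM MgCl2, 1 mM MnCl2, 1 mM DTT.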

[3] = test system: Ba/F3_Del19/T790M/C797S cells; experiment: Ba/F3_Del19/T790M/C797S cell proliferation inhibition assay (CellTiter-Glo); assay type: cell-based
Method in brief: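 IC50 for growth inhibition came from CellTiter-Glo chemiluminescence after a 72 h, 37° C compound exposure. Ba/F3_Del19/T790M/C797S cells were plated at 700/well, and compound was dosed in gradient with 0.1% final DMSO.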

[4] = test system: A431 cells (EGFR WT); experiment: A431 cell proliferation inhibition assay (CellTiter-Glo); assay type: cell-based
Method in brief: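 CellTiter-Glo luminescence quantified growth after 72 h treatment with serially diluted compounds (final DMSO 0.1%), following a 24 h attachment period at 37° C, 5% CO2. Signal read after 30 min dark incubation at room temperature, with half-maximal growth inhibition reported as IC50.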

[5] = test system: Ba/F3_L858R/T790M/C797S cells; experiment: Ba/F3_L858R/T790M/C797S cell proliferation inhibition assay (CellTiter-Glo); assay type: cell-based
Method in brief: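 Proliferation IC50 derived from CellTiter-Glo luminescence in Ba/F3 cells expressing triple-mutant EGFR (L858R/T790M/C797S). Cells (700/well) incubated 72 h with graded compound doses at 0.1% DMSO final, 37 °C, 5% CO2; reagent developed 30 min at room temperature in the dark.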

[6] = cell proliferation, 72 h, CellTiter-Glo, read-out: Ba/F3 (Del19/T790M/C797S) IC50
[7] = cell proliferation, 72 h, CellTiter-Glo, read-out: A431 EGFR WT IC50
[8] = cell proliferation, 72 h, CellTiter-Glo, read-out: Ba/F3 (L858R/T790M/C797S) IC50
[9] = Mus musculus, BaF3, cell proliferation, 72 h, CellTiter-Glo, read-out: Ba/F3 (Del19/T790M/C797S) IC50
[10] = Homo sapiens, A-431, cell proliferation, 72 h, CellTiter-Glo, read-out: A431 EGFR WT IC50
[11] = Mus musculus, BaF3, cell proliferation, 72 h, CellTiter-Glo, read-out: Ba/F3 (L858R/T790M/C797S) IC50

Sequence of EGFR WT (wild type EGFR) (P00533 25-1210): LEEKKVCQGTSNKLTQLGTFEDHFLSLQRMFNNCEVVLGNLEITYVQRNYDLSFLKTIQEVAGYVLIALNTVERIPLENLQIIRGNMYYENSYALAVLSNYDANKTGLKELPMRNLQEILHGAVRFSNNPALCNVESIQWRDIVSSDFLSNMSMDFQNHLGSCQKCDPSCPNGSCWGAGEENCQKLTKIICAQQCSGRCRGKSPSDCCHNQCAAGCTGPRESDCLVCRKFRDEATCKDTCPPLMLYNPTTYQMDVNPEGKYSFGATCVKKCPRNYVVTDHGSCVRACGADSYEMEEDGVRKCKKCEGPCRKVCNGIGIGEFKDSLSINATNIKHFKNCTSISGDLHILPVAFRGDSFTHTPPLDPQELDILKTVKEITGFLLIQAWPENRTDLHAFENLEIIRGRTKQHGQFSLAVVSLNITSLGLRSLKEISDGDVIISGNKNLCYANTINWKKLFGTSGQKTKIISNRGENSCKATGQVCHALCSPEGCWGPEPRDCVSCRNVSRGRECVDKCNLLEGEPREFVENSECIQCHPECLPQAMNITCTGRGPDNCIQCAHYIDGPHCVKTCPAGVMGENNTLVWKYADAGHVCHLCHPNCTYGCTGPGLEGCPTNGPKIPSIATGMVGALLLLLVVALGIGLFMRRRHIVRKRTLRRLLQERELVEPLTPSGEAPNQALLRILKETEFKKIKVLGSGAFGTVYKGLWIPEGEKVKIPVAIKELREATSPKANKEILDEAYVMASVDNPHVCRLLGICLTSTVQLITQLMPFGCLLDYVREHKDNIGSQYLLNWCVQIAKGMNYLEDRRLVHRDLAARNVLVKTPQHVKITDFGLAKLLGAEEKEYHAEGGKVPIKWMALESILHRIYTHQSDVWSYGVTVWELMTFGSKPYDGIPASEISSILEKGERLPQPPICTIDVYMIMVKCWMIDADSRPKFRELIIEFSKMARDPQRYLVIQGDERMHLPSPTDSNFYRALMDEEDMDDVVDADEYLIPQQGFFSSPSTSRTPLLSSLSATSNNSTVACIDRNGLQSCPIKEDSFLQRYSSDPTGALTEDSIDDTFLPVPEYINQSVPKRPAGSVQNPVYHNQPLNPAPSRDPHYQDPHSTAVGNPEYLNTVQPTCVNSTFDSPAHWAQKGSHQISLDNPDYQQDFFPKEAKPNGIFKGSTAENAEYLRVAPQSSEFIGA
Sequence of EGFR L858R/T790M/C797S (P00533 25-1210 T790M/C797S/L858R): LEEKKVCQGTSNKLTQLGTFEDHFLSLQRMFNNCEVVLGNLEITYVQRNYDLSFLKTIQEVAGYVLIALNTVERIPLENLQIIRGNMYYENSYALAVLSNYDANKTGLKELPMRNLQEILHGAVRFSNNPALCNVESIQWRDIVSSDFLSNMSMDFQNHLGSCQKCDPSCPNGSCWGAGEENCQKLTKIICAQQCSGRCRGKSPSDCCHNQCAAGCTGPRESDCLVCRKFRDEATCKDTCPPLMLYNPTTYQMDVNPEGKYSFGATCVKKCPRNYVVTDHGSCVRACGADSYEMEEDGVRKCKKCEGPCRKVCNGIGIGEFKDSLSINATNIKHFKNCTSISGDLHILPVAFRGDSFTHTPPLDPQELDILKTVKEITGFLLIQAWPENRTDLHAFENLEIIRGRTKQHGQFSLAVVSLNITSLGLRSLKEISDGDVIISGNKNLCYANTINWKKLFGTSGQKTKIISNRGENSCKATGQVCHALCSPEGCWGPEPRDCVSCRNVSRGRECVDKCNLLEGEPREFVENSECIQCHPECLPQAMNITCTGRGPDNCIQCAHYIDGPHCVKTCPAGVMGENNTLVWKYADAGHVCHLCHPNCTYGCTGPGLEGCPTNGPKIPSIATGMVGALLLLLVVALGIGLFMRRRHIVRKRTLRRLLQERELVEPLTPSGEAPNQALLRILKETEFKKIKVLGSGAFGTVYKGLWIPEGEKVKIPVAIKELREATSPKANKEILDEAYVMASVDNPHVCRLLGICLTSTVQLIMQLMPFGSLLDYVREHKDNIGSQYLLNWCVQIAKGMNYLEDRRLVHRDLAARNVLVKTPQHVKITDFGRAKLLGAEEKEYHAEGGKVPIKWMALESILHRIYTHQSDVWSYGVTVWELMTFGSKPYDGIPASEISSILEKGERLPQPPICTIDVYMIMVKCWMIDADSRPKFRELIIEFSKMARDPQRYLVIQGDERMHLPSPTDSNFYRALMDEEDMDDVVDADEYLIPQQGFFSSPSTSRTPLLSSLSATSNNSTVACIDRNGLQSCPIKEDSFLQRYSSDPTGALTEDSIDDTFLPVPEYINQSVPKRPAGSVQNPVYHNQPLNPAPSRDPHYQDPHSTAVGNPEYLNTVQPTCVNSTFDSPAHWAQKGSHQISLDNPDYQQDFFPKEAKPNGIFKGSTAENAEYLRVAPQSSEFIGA

| Structure (SMILES) | IC50 [1] | IC50 [2] | IC50 [3, 6] | IC50 [4, 7] | IC50 [5, 8] | IC50 [3, 9] | IC50 [4, 10] | IC50 [5, 11] | IC50 ([3]; Mus musculus, BaF3, 72 h, read-out: Ba/F3 (Del19/T790M/C797S) IC50(nM)) | IC50 ([4]; Homo sapiens, A-431, 72 h, read-out: A431 EGFR WT IC50(nM)) | IC50 ([5]; Mus musculus, BaF3, 72 h, read-out: Ba/F3 (L858R/T790M/C797S) IC50(nM)) |
| --- | --- | --- | --- | --- | --- | --- | --- | --- | --- | --- | --- |
| COc1cc2c(cc1Nc1ncc(Br)c(Nc3ccccc3P(C)(C)=O)n1)-c1cnn(C)c1CCN2[C@H]1CCN(C)C[C@@H]1F (single isomer, unassigned) [Compound 66B] | < 1 nM | 1 to 10 nM | < 10 nM | 100 to 1000 nM | 10 to 50 nM | – | – | – | – | – | – |
| COc1cc2c(cc1Nc1ncc(Br)c(Nc3ccc4nccnc4c3NS(C)(=O)=O)n1)-c1cccnc1CCN2C(C)C [Compound 116] | 1 to 10 nM | 50 to 100 nM | – | – | – | 10 to 50 nM | 100 to 1000 nM | 50 to 100 nM | – | – | – |
| COc1cc2c(cc1Nc1ncc(Br)c(Nc3ccccc3P(C)(C)=O)n1)-c1cn(C3COC3)nc1CCN2C(C)C [Compound 77B] | 1 to 10 nM | 100 to 1000 nM | 50 to 100 nM | 100 to 1000 nM | 50 to 100 nM | – | – | – | – | – | – |
| COc1cc2c(cc1Nc1ncc(C3CC3)c(Nc3ccccc3P(C)(C)=O)n1)-c1cnn(C)c1CCN2C [Compound 30] | < 1 nM | 10 to 50 nM | – | – | – | 10 to 50 nM | 100 to 1000 nM | 50 to 100 nM | – | – | – |
| COc1nc2c(cc1Nc1ncc(Br)c(Nc3ccc4nccnc4c3NS(C)(=O)=O)n1)-c1cnn(C)c1CCN2C(C)C [Compound 86] | 1 to 10 nM | 1 to 10 nM | – | – | – | < 10 nM | 100 to 1000 nM | 10 to 50 nM | – | – | – |
| COc1cc2c(cc1Nc1ncc(Br)c(Nc3ccc4nccnc4c3C(N)=O)n1)-c1cnn(C)c1CCN2C(C)C [Compound 115] | 1 to 10 nM | – | – | – | – | < 10 nM | > 1000 nM | 10 to 50 nM | – | – | – |
| COc1cc2c(cc1Nc1ncc(F)c(Nc3ccccc3P(C)(C)=O)n1)-c1cnn(C)c1CCN2C [Compound 17] | 1 to 10 nM | 1 to 10 nM | – | – | – | 10 to 50 nM | 100 to 1000 nM | 50 to 100 nM | – | – | – |
| COc1cc2c(cc1Nc1ncc(Br)c(Nc3ccc4nccnc4c3P(C)(C)=O)n1)-c1cnn(C)c1CCN2C1CN(C)C1 [Compound 10] | < 1 nM | < 1 nM | – | – | – | < 10 nM | 10 to 50 nM | < 10 nM | – | – | – |
| COc1cc2c(cc1Nc1nccc(Nc3ccccc3P(C)(C)=O)n1)-c1cnn(C)c1CCN2C(C)C [Compound 102] | < 1 nM | 10 to 50 nM | – | – | – | 50 to 100 nM | > 1000 nM | 100 to 1000 nM | – | – | – |
| COc1cc2c(cc1Nc1ncc(Br)c(Nc3ccccc3N(C(C)C)S(C)(=O)=O)n1)-c1cnn(C)c1CCN2 [Compound 122] | 1 to 10 nM | 50 to 100 nM | – | – | – | – | – | – | 10 to 50 nM | 100 to 1000 nM | 10 to 50 nM |
| COc1cc2c(cc1Nc1ncc(C)c(Nc3ccccc3P(C)(C)=O)n1)-c1cnn(C)c1CCN2C#N [Compound 23] | 1 to 10 nM | 10 to 50 nM | – | – | – | 10 to 50 nM | 100 to 1000 nM | 50 to 100 nM | – | – | – |
| COc1cc2c(cc1Nc1ncc(Br)c(Nc3ccc4nccnc4c3P3(=O)CCN(C)CC3)n1)-c1cnn(C)c1CCN2C(C)C [Compound 91] | < 1 nM | < 1 nM | – | – | – | < 10 nM | 100 to 1000 nM | 10 to 50 nM | – | – | – |
| COc1cc2c(cc1Nc1ncc(Br)c(Nc3ccc4nccnc4c3NS(C)(=O)=O)n1)-c1cnn(C)c1CCN2CC(F)(F)F [Compound 125] | 100 to 1000 nM | > 1000 nM | – | – | – | < 10 nM | 100 to 1000 nM | 10 to 50 nM | – | – | – |
| COc1cc2c(cc1Nc1ncc(Br)c(Nc3ccc4nccnc4c3NS(C)(=O)=O)n1)-c1cnn(C)c1CCN2C(C)(C)CF [Compound 120] | 1 to 10 nM | 10 to 50 nM | – | – | – | 10 to 50 nM | 100 to 1000 nM | 10 to 50 nM | – | – | – |
